The values that follow come from paper PMC10063614, “Turning universal O into rare Bombay type blood” (Nature Communications, 2023).

In the assay the target is T1, FucOB (Amuc_1120), α-1,2-L-Fucosidase O to Bombay (Akkermansia muciniphila, UniProt B2UR61).
T1 construct: signal peptide (residues 1-23) removed, additional N-terminal 17-residue peptide with His tag; pET29a, E. coli BL21(DE3); monomer in crystal
In words: released fucose by L-fucose dehydrogenase/NADPH assay. In kind it is biochemical. The conditions noted are these: 20 mM Tris-HCl pH 6.8, 37 °C, 30 min; enzyme:substrate 1:100,000.

T1 sequence (B2UR61 entry or part of it): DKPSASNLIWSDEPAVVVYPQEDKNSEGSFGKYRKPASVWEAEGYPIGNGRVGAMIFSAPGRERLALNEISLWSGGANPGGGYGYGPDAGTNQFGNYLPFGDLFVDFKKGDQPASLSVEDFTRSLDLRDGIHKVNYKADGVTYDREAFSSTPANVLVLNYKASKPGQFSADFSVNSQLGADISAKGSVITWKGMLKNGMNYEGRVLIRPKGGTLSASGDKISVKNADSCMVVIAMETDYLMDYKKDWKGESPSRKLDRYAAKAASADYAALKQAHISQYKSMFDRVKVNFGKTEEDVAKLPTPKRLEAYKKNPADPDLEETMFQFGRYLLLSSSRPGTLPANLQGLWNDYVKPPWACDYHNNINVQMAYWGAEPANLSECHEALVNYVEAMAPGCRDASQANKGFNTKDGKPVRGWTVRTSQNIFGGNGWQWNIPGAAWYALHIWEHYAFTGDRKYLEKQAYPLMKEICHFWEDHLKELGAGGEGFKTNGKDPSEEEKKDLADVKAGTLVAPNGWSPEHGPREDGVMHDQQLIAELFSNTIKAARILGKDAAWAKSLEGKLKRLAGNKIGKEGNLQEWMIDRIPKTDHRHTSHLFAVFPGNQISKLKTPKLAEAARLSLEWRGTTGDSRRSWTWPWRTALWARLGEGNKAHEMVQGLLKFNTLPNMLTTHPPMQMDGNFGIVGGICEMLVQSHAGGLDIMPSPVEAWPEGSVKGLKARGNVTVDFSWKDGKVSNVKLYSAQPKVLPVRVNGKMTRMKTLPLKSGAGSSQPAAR

In the case of `C[C@@H]1O[C@@H](O[C@H]2[C@H](O[C@H]3[C@H](O)[C@@H](O)C(O)O[C@@H]3CO)O[C@H](CO)[C@H](O)[C@@H]2O)[C@@H](O)[C@H](O)[C@@H]1O` (some centres unmarked) [2’-fucosyllactose], the “released fucose by L-fucose dehydrogenase/NADPH assay” value is given as “FucOB hydrolyzes all three types of H antigen structures to obtain the afucosylated Bombay phenotype”.

With `CC(=O)N[C@H]1C(O)O[C@H](CO)[C@@H](O[C@@H]2O[C@H](CO)[C@H](O)[C@H](O)[C@H]2O[C@@H]2O[C@@H](C)[C@@H](O)[C@@H](O)[C@@H]2O)[C@@H]1O` (some centres unmarked) [blood group H antigen triaose type II], the “released fucose by L-fucose dehydrogenase/NADPH assay” value is listed as “FucOB hydrolyzes all three types of H antigen structures to obtain the afucosylated Bombay phenotype”.
